Each compound was assayed against Coagulation factor X (Homo sapiens) (UniProt P00742) (assay: Binding ability to coagulation factor Xa, expressed as apparent association constant).
Sequence of Coagulation factor X (Homo sapiens) (P00742 41-179 limits assumed): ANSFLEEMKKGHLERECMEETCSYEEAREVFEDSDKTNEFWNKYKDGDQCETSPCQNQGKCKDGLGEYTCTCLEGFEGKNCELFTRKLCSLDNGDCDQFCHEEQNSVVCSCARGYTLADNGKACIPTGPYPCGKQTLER
Sequence of Coagulation factor X (Homo sapiens) (P00742 235-488 limits assumed): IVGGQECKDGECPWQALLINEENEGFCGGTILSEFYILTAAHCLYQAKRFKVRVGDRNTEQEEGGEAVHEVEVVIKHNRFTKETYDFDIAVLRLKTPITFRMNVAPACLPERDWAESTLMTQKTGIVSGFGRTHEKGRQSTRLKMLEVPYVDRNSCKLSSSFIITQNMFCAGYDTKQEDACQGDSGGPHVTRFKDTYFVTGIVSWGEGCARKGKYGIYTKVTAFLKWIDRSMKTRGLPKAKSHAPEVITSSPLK

| K ass | SMILES |
| --- | --- |
| 8.2e+08 l M-1 | O=C(N[C@@H](C(=O)NCC1CCN(C2CCCC2)CC1)c1ccccc1)c1ccc2c(Cl)c[nH]c2c1 |
| 2.5e+08 l M-1 | O=C(NC(C(=O)NCC1CCN(C2CCCC2)CC1)c1cccc2ccccc12)c1ccc2c(Cl)c[nH]c2c1 (stereo not drawn) |
| 50000 l M-1 | COc1ccc(C(=O)NC(C(=O)NCC2CCN(C(C)C)CC2)c2cnc3ccccc3c2)cc1 (stereo not drawn) |
| 1.3e+06 l M-1 | COc1ccc(C(=O)NC(C(=O)NCC2CCN(C(C)C)CC2)c2ccnc3ccccc23)cc1 (stereo not drawn) |
| 3.8e+08 l M-1 | O=C(NC(C(=O)NCC1CCN(C2CCCC2)CC1)c1nccs1)c1ccc2c(Cl)c[nH]c2c1 (stereo not drawn) |
| 710000 l M-1 | COc1ccc(C(=O)NC(C(=O)NCC2CCN(C(C)C)CC2)c2ccccc2)cc1 (stereo not drawn) |
| 4.1e+06 l M-1 | COc1ccc(C(=O)NC(C(=O)NCC2CCN(C(C)C)CC2)c2ccccc2I)cc1 (stereo not drawn) |
| 7.9e+07 l M-1 | O=C(NC(C(=O)NCC1CCN(C2CCCC2)CC1)c1ccc2ccccc2c1)c1ccc2c(Cl)c[nH]c2c1 (stereo not drawn) |
| 200000 l M-1 | O=C(NC(C(=O)NCC1CCN(C2CCCC2)CC1)c1cnc2ccccc2c1)c1ccc2c(Cl)c[nH]c2c1 (stereo not drawn) |
| 5.1e+06 l M-1 | COc1ccc(C(=O)NC(C(=O)NCC2CCN(C(C)C)CC2)c2ccccc2Cl)cc1 (stereo not drawn) |
| 1.3e+06 l M-1 | COc1ccc(C(=O)NC(C(=O)NCC2CCN(C(C)C)CC2)c2ccccc2Oc2ccccc2)cc1 (stereo not drawn) |

More lines, now with the values behind:

| SMILES | K ass |
| --- | --- |
| COc1ccc(C(=O)NC(C(=O)NCC2CCN(C(C)C)CC2)c2ccco2)cc1 (stereo not drawn) | 360000 l M-1 |
| COc1ccc(C(=O)NC(C(=O)NCC2CCN(C(C)C)CC2)c2ccccc2[N+](=O)[O-])cc1 (stereo not drawn) | 4.2e+06 l M-1 |
| COc1ccc(C(=O)NC(C(=O)NCC2CCN(C(C)C)CC2)c2ccccc2OC(F)(F)F)cc1 (stereo not drawn) | 4.1e+06 l M-1 |
| CCOc1ccccc1C(NC(=O)c1ccc(OC)cc1)C(=O)NCC1CCN(C(C)C)CC1 (stereo not drawn) | 2.8e+06 l M-1 |
| COc1ccc(C(=O)NC(C(=O)NCC2CCN(C(C)C)CC2)c2ccccc2SC)cc1 (stereo not drawn) | 2.9e+06 l M-1 |
| COc1ccc(C(=O)NC(C(=O)NCC2CCN(C(C)C)CC2)c2ccccc2SC(C)(C)C)cc1 (stereo not drawn) | 1.7e+06 l M-1 |
| COc1ccc(C(=O)NC(C(=O)NCC2CCN(C(C)C)CC2)c2cccs2)cc1 (stereo not drawn) | 1.1e+06 l M-1 |
| COc1ccc(C(=O)NC(C(=O)NCC2CCN(C(C)C)CC2)c2ccsc2)cc1 (stereo not drawn) | 880000 l M-1 |
| COc1ccc(C(=O)NC(C(=O)NCC2CCN(C(C)C)CC2)c2ccccc2OC)cc1 (stereo not drawn) | 1.9e+06 l M-1 |
| COc1ccc(C(=O)NC(C(=O)NCC2CCN(C(C)C)CC2)c2ccccc2C)cc1 (stereo not drawn) | 2.5e+06 l M-1 |
| COc1ccc(C(=O)NC(C(=O)NCC2CCN(C(C)C)CC2)c2ccccc2OCc2ccccc2)cc1 (stereo not drawn) | 2.6e+06 l M-1 |
| COc1ccc(C(=O)NC(C(=O)NCC2CCN(C(C)C)CC2)c2ccoc2)cc1 (stereo not drawn) | 200000 l M-1 |
| COc1ccc(C(=O)NC(C(=O)NCC2CCN(C(C)C)CC2)c2ccccc2N)cc1 (stereo not drawn) | 750000 l M-1 |
| COc1ccc(C(=O)NC(C(=O)NCC2CCN(C(C)C)CC2)c2ccccc2O)cc1 (stereo not drawn) | 1.3e+06 l M-1 |
| COc1ccc(C(=O)NC(C(=O)NCC2CCN(C(C)C)CC2)c2ccccc2C(F)(F)F)cc1 (stereo not drawn) | 3.1e+06 l M-1 |
| COc1ccc(C(=O)NC(C(=O)NCC2CCN(C(C)C)CC2)c2ccccc2N(C)C)cc1 (stereo not drawn) | 1.1e+06 l M-1 |
| COc1ccc(C(=O)NC(C(=O)NCC2CCN(C(C)C)CC2)c2ccccc2Br)cc1 (stereo not drawn) | 4.6e+06 l M-1 |
| COc1ccc(C(=O)NC(C(=O)NCC2CCN(C(C)C)CC2)c2ccccc2F)cc1 (stereo not drawn) | 2e+06 l M-1 |
| COc1ccc(C(=O)NC(C(=O)NCC2CCN(C(C)C)CC2)c2ncc[nH]2)cc1 (stereo not drawn) | 210000 l M-1 |

Organism: Homo sapiens
Experiment: Concentration required to double the time of clot formation in reconstituted human plasma, using prothrombin time assay
Type: functional, organism-based

| SMILES | Concentration [µM] |
| --- | --- |
| O=C(NC(C(=O)NCC1CCN(C2CCCC2)CC1)c1cccc2ccccc12)c1ccc2c(Cl)c[nH]c2c1 (stereo not drawn) | 3.8 |
| O=C(NC(C(=O)NCC1CCN(C2CCCC2)CC1)c1nccs1)c1ccc2c(Cl)c[nH]c2c1 (stereo not drawn) | 0.79 |
| O=C(NC(C(=O)NCC1CCN(C2CCCC2)CC1)c1ccc2ccccc2c1)c1ccc2c(Cl)c[nH]c2c1 (stereo not drawn) | 4.1 |
